Source: patent publication US11464749B2, “Bismuth-thiol compositions and methods of use” (Microbion Corporation, priority 2018, dated 2022)
Converted amounts (≈) assume the structure as drawn. Where two headings read alike, the source gives them in different places.

Columns and labels:
Candida krusei = test: Broth microdilution antifungal susceptibility (Example 13); format: cell-based; conditions: Pichia kudriavzevii
E. faecium = test: Broth microdilution MIC (Example 11); conditions: Enterococcus faecium, VRE, VRE vanA Lev^R Cip^R Ery^R
[1] = tested on: P. aeruginosa and A. baumannii; test: Broth microdilution MIC (Example 11); conditions: read-out: MIC values
P. aeruginosa = test: MIC against CF bacterial strains (Example 5); conditions: Pseudomonas aeruginosa
Enterobacteriaceae = test: Broth microdilution MIC (Example 11); conditions: Escherichia coli, read-out: MIC values
S. maltophilia = test: MIC against CF bacterial strains (Example 5); conditions: Stenotrophomonas maltophilia
B. cepacia = test: Broth microdilution MIC (Example 10); conditions: initial MIC testing

SMILES | MIC (Candida krusei; ATCC6258, read-out: MIC0 (complete inhibition)) [µg/mL] | MIC (Candida krusei; ATCC14243, read-out: MIC0 (complete inhibition)) [µg/mL] | MIC (Candida krusei; ATCC96685, read-out: MIC2 (50% inhibition)) [µg/mL] | MIC (Candida krusei; read-out: MIC2 (50% inhibition)) [µg/mL] | MIC (Candida krusei; read-out: MIC0 (complete inhibition)) [µg/mL] | MIC (E. faecium; E. faecium MMX 485) [µg/mL] | MIC (E. faecium; E. faecium MMX 752) [µg/mL] | MIC [1] [µg/mL] | MIC (P. aeruginosa; strain AGR1) [µg/mL] | MIC (P. aeruginosa; strain AGR14, Multi-drug resistant) [µg/mL] | MIC (P. aeruginosa; strain MR14, Multi-drug resistant) [µg/mL] | MIC (Enterobacteriaceae) [µg/mL] | MIC (S. maltophilia) [µg/mL] | MIC (B. cepacia; B. cepacia isolate 0546) [µg/mL] | MIC (B. cepacia; B. cepacia isolate 0547) [µg/mL] | MIC (B. cepacia; B. cepacia isolate 1793) [µg/mL] | MIC (B. cepacia; B. cepacia isolate 1794) [µg/mL] | MIC (B. cepacia; B. cepacia isolate 9040) [µg/mL]
CC(S)C(C)S.[Bi] (stereo not drawn) [BisBDT, bismuth-2,3-butanedithiol] | 1 | 1 | 0.25 | 1 | 2 | 0.5 | 1 | 0.5 to 2 | 1 | 1 | 1 | 0.5 to 2 | 0.13 | – | – | – | – | –
C[C@@H](O)[C@H]1C(=O)N2C(C(=O)O)=C(S[C@@H]3CN[C@H](C(=O)N(C)C)C3)[C@H](C)[C@H]12 [MEM] | – | – | – | – | – | – | – | – | – | – | – | – | – | 4 (≈ 10.4 µM) | 2 (≈ 5.22 µM) | 4 (≈ 10.4 µM) | 4 (≈ 10.4 µM) | 4 (≈ 10.4 µM)
